From publication PMC3673537 (Bioorganic & medicinal chemistry, 2011) come the findings set out here.

Molecules are shown by their SMILES. Marks after values point to notes of the source that are not given here. Bounds are passed on as bounds.

For assay [1], the target named is T1, CqsS (Vibrio cholerae serotype O1, UniProt Q9KM66). The experiment in a line: Vibrio cholerae agonism bioassay. The following applies: for agonist activity (in words): V. cholerae MM920 reporter, up to 50 μM; for % Response at the maximum concentration (50 μM): bioluminescence at 50 μM, with respect to CAI-1 at 100%.
T1 sequence (Q9KM66 whole entry, looked up): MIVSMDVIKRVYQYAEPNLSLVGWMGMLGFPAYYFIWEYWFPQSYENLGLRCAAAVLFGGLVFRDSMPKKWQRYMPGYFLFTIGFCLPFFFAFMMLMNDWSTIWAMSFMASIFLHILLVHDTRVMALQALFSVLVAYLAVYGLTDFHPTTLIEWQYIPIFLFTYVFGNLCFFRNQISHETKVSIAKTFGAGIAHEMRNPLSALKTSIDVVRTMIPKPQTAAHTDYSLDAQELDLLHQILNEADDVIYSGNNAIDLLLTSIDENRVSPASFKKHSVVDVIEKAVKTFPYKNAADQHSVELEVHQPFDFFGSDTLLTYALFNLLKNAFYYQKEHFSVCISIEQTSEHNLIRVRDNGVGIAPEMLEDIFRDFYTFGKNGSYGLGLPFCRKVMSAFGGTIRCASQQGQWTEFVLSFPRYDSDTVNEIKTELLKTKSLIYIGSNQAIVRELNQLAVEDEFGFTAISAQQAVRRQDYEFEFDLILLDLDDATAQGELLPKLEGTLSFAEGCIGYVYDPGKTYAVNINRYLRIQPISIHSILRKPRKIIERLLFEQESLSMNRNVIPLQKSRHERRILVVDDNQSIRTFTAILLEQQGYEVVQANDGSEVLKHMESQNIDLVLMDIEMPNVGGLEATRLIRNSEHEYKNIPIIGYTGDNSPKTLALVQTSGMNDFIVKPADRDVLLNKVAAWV
For assay [2], the target named is T1, CqsS. In words: Vibrio cholerae antagonism bioassay. The following applies: for antagonist activity (in words): V. cholerae MM920 reporter with 1.0 μM CAI-1, up to 512 μM; for Ratio: IC50 (analog)/IC50 (Ph-CAI-1): using the IC50 of Ph-CAI-1 determined on the same day.
For the next assay, the system named is Tcp. The experiment in a line: Western blot against Tcp. It is filed as cell-based, Vibrio cholerae. The following applies: Supplementary data.
The subject of a further assay is HapR. In words: Western blot against HapR. The following applies: Supplementary data. It is filed as cell-based, Vibrio cholerae. On the technique in general: Immunoblotting shows a protein as a band on a membrane.

Consider `CCCCCCCCCC(=O)C(O)C(C)(C)C` (stereo not shown) [Compound C4, 3-Hydroxy-2,2-dimethyltridecan-4-one], for which the “agonist activity (in words)” value on CqsS [1] is “inactive”. Take `CCCCCCCCCC(=O)C(O)c1ccc(Br)cc1` (stereo not shown) [Compound C28, 1-(4-Bromophenyl)-1-hydroxyundecan-2-one]: the “antagonist activity (in words)” value at CqsS [2] is recorded as “weak antagonist”. A word on the IC50: it is the concentration at which inhibition is half-maximal. Read a low IC50 as greater potency in that assay. Take `CCCCCCCCCC(=O)C(O)c1ccc(CC)cc1` (stereo not shown) [Compound C10, 1-(4-Ethylphenyl)-1-hydroxyundecan-2-one]: on CqsS [2], the IC50 was over 500 µM, the “antagonist activity (in words)” value is “inactive” and the “Ratio: IC50 (analog)/IC50 (Ph-CAI-1)” value was over 9.

Regarding `CCCCCCCCCCCCC(=O)[C@@H](O)CC` [Compound A9, (S)-3-Hydroxyhexadecan-4-one], the “agonist activity (in words)” value at CqsS [1] was “essentially inactive”. For `CCCCCCCCCC(=O)C(O)c1ccc(C)c(C)c1` (stereo not shown) [Compound C9, 1-Hydroxy-1-(3,4-dimethylphenyl)undecan-2-one], on CqsS [2], the “antagonist activity (in words)” value is reported as “abolishes activity”.

Take `CCCCCCCCCC(=O)C(Cl)CC` (stereo not shown) [Compound B8, Cl-CAI-1]: the “agonist activity (in words)” value at CqsS [1] was “inactive”. As to `CCCCCCCCCC(=O)C(O)c1ccc(CCC)cc1` (stereo not shown) [Compound C11, 1-Hydroxy-1-(4-propylphenyl)-undecan-2-one], on CqsS [2], the concentration for half-maximal inhibition (IC50) was over 500 µM, the “antagonist activity (in words)” value was “inactive” and the “Ratio: IC50 (analog)/IC50 (Ph-CAI-1)” value is over 9.

Turning to `CCCCCC(=O)[C@@H](O)CC` [Compound A1, (S)-3-Hydroxynonan-4-one], the “% Response at the maximum concentration (50 μM)” value on CqsS [1] was 27 ^e %.

Turning to `CCCCCCC(=O)[C@@H](O)CC` [Compound A2, (S)-3-Hydroxydecan-4-one], on CqsS [1], the “agonist activity (in words)” value is “essentially inactive” and the “% Response at the maximum concentration (50 μM)” value was 59 ^e %. As to `CCCCCCCCCC(=O)[C@@H](O)CC` [Compound 1, (S)-3-hydroxytridecan-4-one], the “expression of Tcp” value in the assay with Tcp is listed as “significant reduction”. In the assay with HapR, the “expression of HapR” value is “concomitant expression”.
